Data taken from patent US20260028354A1, “TETRAHYDRONAPHTHALENE DERIVATIVES AS ESTROGEN RECEPTOR DEGRADERS” (REGENT OF THE UNIVERSITY OF MICHIGAN, priority 2022, published 2026).

Assays:
Format in all cases: cell-based
ER = ER (Homo sapiens (Human), UniProt P03372); assay: In-cell western blot analysis of ER for "B" compounds; conditions: 16 hours, read-out: ICW DC50
Experimental: R^T 2h, gentle shaking. Negative control: cells plus secondary antibodies (no primary antibodies); e, wash x 4 with PBS+0.05-0.1% Tween 20, gentel shaking; f, anti-rabbit-680 and anti-mouse-800 (both 1:1000 in LiCor block+0.05% Tween20, R^T 1h, gentle shaking, no light. LI-COR: 0.2% to reduce background; g, wash×4 with PBS+0.05% Tween 20, gental shaking; h, add 100 μL or 25 μL of PBS to each well and read on CLX plate reader. The relative ER percentage in treated cells were obtained by comparing the values of treated wells to those in untreated and DMSO-treated wells as 100%.

[1] = Cell growth assay (WST-8) for "B" compounds; conditions: T47D, T47D cell line; read-out: Cell growth Inhibition in T47D cell line IC50
Experimental: Cell Growth Assay. The cells were seeded at 1500/well in 96 well plates overnight. One day after the seeding, they were treated with indicated doses of compounds respectively, 4 days after the compound treatment, 10% WST-8 reagent was added to the culture medium and incubate in a CO2 incubator at 37° C. for 2.5 hours. Before reading, the plate was mixed gently on an orbital shaker for one minute to ensure homogeneous distribution of color. The absorbance was measured of each sample using a microplate reader at a wavelength of 450 nm. The relative absorbance was calculated against the vehicle control from three individually repeats.

[2] = Western blot analysis for "B" compounds; conditions: read-out: Traditional Western Degradation Potency (DC50)
Method in brief: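 Target protein levels given as relative mean band intensity over GAPDH from scanned immunoblots. Lysates of treated cells in RIPA buffer, equalized by BCA, separated on 10% gels and transferred to PVDF.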

Sequence of ER (P03372 whole entry): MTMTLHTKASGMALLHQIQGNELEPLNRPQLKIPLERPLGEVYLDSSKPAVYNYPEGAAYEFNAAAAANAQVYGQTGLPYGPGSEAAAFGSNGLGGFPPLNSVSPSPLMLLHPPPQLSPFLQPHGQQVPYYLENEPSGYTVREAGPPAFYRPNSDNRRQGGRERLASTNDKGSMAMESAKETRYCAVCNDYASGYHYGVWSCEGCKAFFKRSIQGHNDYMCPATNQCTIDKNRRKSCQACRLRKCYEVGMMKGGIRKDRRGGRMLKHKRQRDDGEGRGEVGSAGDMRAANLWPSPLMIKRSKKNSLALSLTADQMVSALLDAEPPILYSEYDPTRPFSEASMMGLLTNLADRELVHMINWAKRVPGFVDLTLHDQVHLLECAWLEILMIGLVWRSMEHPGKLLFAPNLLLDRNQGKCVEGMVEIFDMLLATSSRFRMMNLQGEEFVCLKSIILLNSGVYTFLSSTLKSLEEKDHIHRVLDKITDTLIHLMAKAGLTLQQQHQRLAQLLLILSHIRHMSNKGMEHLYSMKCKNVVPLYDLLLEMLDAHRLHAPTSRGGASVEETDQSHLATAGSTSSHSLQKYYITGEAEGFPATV

Structure (SMILES)	DC50 (ER)	IC50 [1]	DC50 [2]
O=C1CCC(N2Cc3cc4c(cc3C2=O)OC[C@@H]2CN(CC3CC5CN(c6ccc([C@@H]7c8ccc(O)cc8CC[C@@H]7c7ccccc7)cc6)CC5C3)CCN42)C(=O)N1 (mixture of isomers) [Compound B321, 3-((4aS)-3-(((3aRS,6aSR)-2-(4-((1R,2S)-6-hydroxy-2-phenyl-1,2,3,4-tetrahydronaphthalen-1-yl)phenyl)octahydrocyclopenta[c]pyrrol-5-yl)methyl)-8-oxo-1,2,3,4,4a,5,8,10-octahydro-9H-pyrazino[1′,2′:4,5][1,4]oxazino[2,3-f]isoindol-9-yl)piperidine-2,6-dione]	> 100 nM	–	–
O=C1CCC(N2C(=O)c3cc4c(cc3C2=O)CN(CC(=O)N2CCC3(CC2)CCN(c2ccc([C@H]5c6ccc7[nH]ncc7c6CC[C@H]5c5ccccc5)cc2)CC3)C4)C(=O)N1 (stereo partly drawn) [Compound B138, 2-(2,6-dioxopiperidin-3-yl)-6-(2-oxo-2-(9-(4-((6S,7R)-7-phenyl-6,7,8,9-tetrahydro-3H-benzo[e]indazol-6-yl)phenyl)-3,9-diazaspiro[5.5]undecan-3-yl)ethyl)-6,7-dihydropyrrolo[3,4-f]isoindole-1,3(2H,5H)-dione]	–	1 to 10 nM	> 100 nM
O=C1CCC(N2Cc3cc4c(cc3C2=O)OC[C@@H]2CN(CC(=O)N3C[C@@H]5CN(c6ccc([C@@H]7c8ccc(O)cc8CC[C@@H]7c7ccccc7)cc6)C[C@@H]5C3)CCN42)C(=O)N1 (stereo partly drawn) [Compound B156, 3-((S)-3-(2-((3aR,6aS)-5-(4-((1R,2S)-6-hydroxy-2-phenyl-1,2,3,4-tetrahydronaphthalen-1-yl)phenyl)hexahydropyrrolo[3,4-c]pyrrol-2(1H)-yl)-2-oxoethyl)-8-oxo-1,2,3,4,4a,5,8,10-octahydro-9H-pyrazino[1′,2′:4,5][1,4]oxazino[2,3-f]isoindol-9-yl)piperidine-2,6-dione]	> 100 nM	–	–
O=C1CCC(N2Cc3cc4c(cc3C2=O)OC[C@@H]2CN(C(=O)CN3CCC5(CC3)CCN(c3ccc([C@@H]6c7ccc(O)cc7CC[C@@H]6c6ccccc6)cn3)CC5)CCN42)C(=O)N1 (stereo partly drawn) [Compound B158, 3-((S)-3-(2-(9-(5-((1S,2S)-6-hydroxy-2-phenyl-1,2,3,4-tetrahydronaphthalen-1-yl)pyridin-2-yl)-3,9-diazaspiro[5.5]undecan-3-yl)acetyl)-8-oxo-1,2,3,4,4a,5,8,10-octahydro-9H-pyrazino[1′,2′:4,5][1,4]oxazino[2,3-f]isoindol-9-yl)piperidine-2,6-dione]	10 to 100 nM	–	–
O=C1CCC(N2Cc3cc4c(cc3C2=O)OC[C@@H]2CN(CC(=O)N3CCC5(CC3)CN(c3ccc([C@@H]6c7ccc(O)cc7CC[C@@H]6c6ccccc6)cc3)C5)CCN42)C(=O)N1 (stereo partly drawn) [Compound B160, 3-((S)-3-(2-(2-(4-((1R,2S)-6-hydroxy-2-phenyl-1,2,3,4-tetrahydronaphthalen-1-yl)phenyl)-2,7-diazaspiro[3.5]nonan-7-yl)-2-oxoethyl)-8-oxo-1,2,3,4,4a,5,8,10-octahydro-9H-pyrazino[1′,2′:4,5][1,4]oxazino[2,3-f]isoindol-9-yl)piperidine-2,6-dione]	< 10 nM	–	–
O=C1CCC(N2Cc3cc4c(cc3C2=O)OC[C@@H]2CN(C(=O)CN3CCC5(CC3)CN(c3ccc([C@@H]6c7ccc(O)cc7CC[C@@H]6c6ccccc6)cc3)C5)CCN42)C(=O)N1 (stereo partly drawn) [Compound B161, 3-((S)-3-(2-(2-(4-((1R,2S)-6-hydroxy-2-phenyl-1,2,3,4-tetrahydronaphthalen-1-yl)phenyl)-2,7-diazaspiro[3.5]nonan-7-yl)acetyl)-8-oxo-1,2,3,4,4a,5,8,10-octahydro-9H-pyrazino[1′,2′:4,5][1,4]oxazino[2,3-f]isoindol-9-yl)piperidine-2,6-dione]	< 10 nM	–	–
